From ChEMBL document CHEMBL5223113, “Several non-salt and solid thienopyridine derivatives as oral P2Y12 receptor inhibitors with good stability” (Bioorg Med Chem Lett, 2022)

Assays:
Rattus norvegicus [1] = test: Inhibition of thrombosis in anteriovenous bypassed rat at 0.1 mg/kg relative to control; conditions: read-out: INH
Rattus norvegicus [2] = test: Anti-platelet activity against ADP-induced platelet aggregation in rat assessed as inhibition of platelet aggregation at 0.25 mg/kg relative to control; assay type: functional
Rattus norvegicus [3] = test: Inhibition of thrombosis in anteriovenous bypassed rat at 1 mg/kg relative to control; assay type: functional
[4] = Toxicity in beagle dog assessed as vomiting at 1000 mg/kg oral gavage single dose; assay type: organism-based, Canis lupus familiaris; conditions: in vivo
Rattus norvegicus [5] = species on record: Rattus norvegicus; test: Inhibition of thrombosis in anteriovenous bypassed rat; assay type: functional
Rattus norvegicus [6] = test: Inhibition of thrombosis in anteriovenous bypassed rat at 0.3 mg/kg relative to control; assay type: functional
Rattus norvegicus [7] = test: Inhibition of thrombosis in anteriovenous bypassed rat at 3 mg/kg relative to control; assay type: functional
[8] = Toxicity in rat assessed as bleeding time by measuring ratio of ED200 to ED50 ratio by tail cutting assay; conditions: in vivo
[9] = Toxicity in beagle dog assessed as atrophy of hepatocyte at 1000 mg/kg oral gavage single dose; assay type: organism-based, Canis lupus familiaris; conditions: hepatocytes
Rattus norvegicus [10] = test: Anti-platelet activity against ADP-induced platelet aggregation in rat assessed as inhibition of platelet aggregation at 0.5 mg/kg relative to control; assay type: functional
Rattus norvegicus [11] = test: Anti-platelet activity against ADP-induced platelet aggregation in rat assessed as inhibition of platelet aggregation at 1 mg/kg relative to control; assay type: functional
[12] = Toxicity in rat assessed as bleeding time by tail cutting assay; conditions: in vivo
Rattus norvegicus [13] = species on record: Rattus norvegicus; test: animal or person; conditions: Platelet, read-out: INH
Description: Anti-platelet activity against ADP-induced platelet aggregation in rat assessed as inhibition of platelet aggregation at 2.5 mg/kg relative to control

[14] = Stability in human plasma assessed as compound remaining measured at 30 mins relative to control; assay type: ADME, cell-free; conditions: read-out: Stability
[15] = Stability in human plasma assessed as compound remaining measured at 60 mins relative to control; assay type: ADME, cell-free; conditions: read-out: Stability
[16] = Stability in human plasma assessed as compound remaining measured at 5 mins relative to control; assay type: ADME, cell-free; conditions: read-out: Stability
[17] = Stability in human plasma assessed as compound remaining measured at 20 mins relative to control; assay type: ADME, cell-free; conditions: read-out: Stability
[18] = Stability in human plasma assessed as compound remaining measured at 120 mins relative to control; assay type: ADME, cell-free; conditions: read-out: Stability
[19] = Stability in human plasma assessed as compound remaining measured at 90 mins relative to control; assay type: ADME, cell-free; conditions: read-out: Stability
Rattus norvegicus [20] = species on record: Rattus norvegicus; test: animal or person; conditions: Platelet, read-out: INH; remark: listed apart in the source
Description: Anti-platelet activity against ADP-induced platelet aggregation in rat assessed as inhibition of platelet aggregation at 5 mg/kg relative to control

Rattus norvegicus [21] = test: Inhibition of thrombosis in anteriovenous bypassed rat at 10 mg/kg relative to control; assay type: functional
Rattus norvegicus [22] = species on record: Rattus norvegicus; test: animal or person; conditions: Platelet, read-out: INH; remark: listed apart in the source
Description: Anti-platelet activity against ADP-induced platelet aggregation in rat assessed as inhibition of platelet aggregation at 10 mg/kg relative to control

[23] = Stability in human plasma assessed as compound remaining measured at 45 mins relative to control; assay type: ADME, cell-free; conditions: read-out: Stability
Rattus norvegicus [24] = test: Inhibition of thrombosis in anteriovenous bypassed rat at 30 mg/kg relative to control; assay type: functional
[25] = Stability in human plasma assessed as compound remaining measured at 10 mins relative to control; assay type: ADME, cell-free; conditions: read-out: Stability
Rattus norvegicus [26] = test: Anti-platelet activity against ADP-induced platelet aggregation in rat assessed as inhibition of platelet aggregation at 4 mg/kg relative to control; assay type: functional
Rattus norvegicus [27] = test: Anti-platelet activity against ADP-induced platelet aggregation in rat assessed as inhibition of platelet aggregation at 2 mg/kg relative to control; assay type: functional

CC(=O)Oc1cc2c(s1)CCN(C(C(=O)C1CC1)c1ccccc1F)C2 (stereo not drawn) [PRASUGREL]
inhibition in vivo at 0.1 mg/kg (Rattus norvegicus [1]): 6% | inhibition in vivo at 0.25 mg/kg (Rattus norvegicus [2]): 13.3% | inhibition in vivo at 1 mg/kg (Rattus norvegicus [3]): 35.7% | Activity [4]: Toxic | ED50 (Rattus norvegicus [5]): 11.8 mg/kg | inhibition in vivo at 0.3 mg/kg (Rattus norvegicus [6]): 9% | inhibition in vivo at 3 mg/kg (Rattus norvegicus [7]): 70.2% | selectivity ratio [8]: 0.838 | Activity [9]: Toxic | inhibition in vivo at 0.5 mg/kg (Rattus norvegicus [10]): 37.8% | inhibition in vivo at 1 mg/kg (Rattus norvegicus [11]): 13.3% | ED200 [12]: 0.513 mg/kg

COC(=O)[C@H](c1ccccc1Cl)N1CCc2sccc2C1 [CLOPIDOGREL]
inhibition in vivo at 2.5 mg/kg (Rattus norvegicus [13]): 26.5% | remaining at 0.5 h [14]: 104% | remaining at 1 h [15]: 100% | remaining at 5 min [16]: 106% | remaining at 20 min [17]: 100% | remaining at 2 h [18]: 96% | remaining at 1.5 h [19]: 94% | inhibition in vivo at 5 mg/kg (Rattus norvegicus [20]): 59.7% | inhibition in vivo at 10 mg/kg (Rattus norvegicus [21]): 41.5% | inhibition in vivo at 10 mg/kg (Rattus norvegicus [22]): 90.5% | remaining at 0.75 h [23]: 101% | inhibition in vivo at 30 mg/kg (Rattus norvegicus [24]): 72.6% | remaining at 10 min [25]: 102%

C=C/C=C/C(=O)Oc1cc2c(s1)CCN([C@H](C(=O)OC)c1ccccc1Cl)C2
inhibition in vivo at 4 mg/kg (Rattus norvegicus [26]): 100% | inhibition in vivo at 2 mg/kg (Rattus norvegicus [27]): 97.6% | inhibition in vivo at 1 mg/kg (Rattus norvegicus [11]): 44%
